From article PMC8755628 (Pharmacological research, 2021)

Biological target: MET (Homo sapiens, UniProt P08581)
Experiment: MET kinase assay
Format: biochemical

MET, sequence (P08581 25-307): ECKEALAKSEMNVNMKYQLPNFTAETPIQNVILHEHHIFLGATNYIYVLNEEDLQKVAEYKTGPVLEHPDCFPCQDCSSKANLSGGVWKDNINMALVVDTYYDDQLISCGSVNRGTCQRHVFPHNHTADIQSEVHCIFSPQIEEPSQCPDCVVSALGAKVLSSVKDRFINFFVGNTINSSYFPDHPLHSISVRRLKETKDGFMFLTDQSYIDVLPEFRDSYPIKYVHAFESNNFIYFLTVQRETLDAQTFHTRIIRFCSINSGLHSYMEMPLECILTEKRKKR
MET, sequence (P08581 308-1390): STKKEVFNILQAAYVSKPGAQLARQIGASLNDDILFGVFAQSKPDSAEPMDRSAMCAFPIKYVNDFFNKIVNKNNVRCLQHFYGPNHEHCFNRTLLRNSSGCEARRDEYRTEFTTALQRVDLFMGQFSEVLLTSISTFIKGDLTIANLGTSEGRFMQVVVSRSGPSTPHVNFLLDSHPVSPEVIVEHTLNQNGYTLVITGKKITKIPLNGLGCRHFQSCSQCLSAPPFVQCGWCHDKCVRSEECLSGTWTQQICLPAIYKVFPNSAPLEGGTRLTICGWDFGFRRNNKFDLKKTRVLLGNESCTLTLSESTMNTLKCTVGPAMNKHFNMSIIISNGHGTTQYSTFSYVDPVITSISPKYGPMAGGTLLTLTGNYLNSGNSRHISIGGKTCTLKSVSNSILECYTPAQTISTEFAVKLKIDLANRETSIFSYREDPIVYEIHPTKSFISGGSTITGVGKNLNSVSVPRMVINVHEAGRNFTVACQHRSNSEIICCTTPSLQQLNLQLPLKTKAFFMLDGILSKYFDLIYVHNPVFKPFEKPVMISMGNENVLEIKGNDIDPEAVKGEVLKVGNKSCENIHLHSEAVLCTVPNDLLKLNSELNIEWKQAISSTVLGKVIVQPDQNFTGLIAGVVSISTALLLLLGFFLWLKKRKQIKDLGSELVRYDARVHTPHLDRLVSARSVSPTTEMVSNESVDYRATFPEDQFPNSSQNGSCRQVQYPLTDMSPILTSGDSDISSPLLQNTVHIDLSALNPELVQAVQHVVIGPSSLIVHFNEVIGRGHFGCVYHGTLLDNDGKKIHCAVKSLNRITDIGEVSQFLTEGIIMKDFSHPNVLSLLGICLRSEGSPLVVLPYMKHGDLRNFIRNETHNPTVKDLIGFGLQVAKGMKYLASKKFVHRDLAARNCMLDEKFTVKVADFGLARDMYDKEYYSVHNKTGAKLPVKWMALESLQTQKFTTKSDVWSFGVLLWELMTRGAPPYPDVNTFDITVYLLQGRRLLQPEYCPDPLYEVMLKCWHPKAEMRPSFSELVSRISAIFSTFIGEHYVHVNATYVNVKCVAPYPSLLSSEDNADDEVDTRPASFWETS

COc1ccc2cc3[n+](cc2c1OC)CCc1cc2c(cc1-3)OCO2 [BBR, Berberine]
IC50: 19.6 µM
